This series is described as follows: Precipitation boundary of etidronate in the presence of Ca2+ by NaOH titration. Particulars: Ca:etidronate molar ratio 2:1, titration with NaOH. It is filed as physicochemical. The procedure:
Etidronic acid has a molecular weight of 206.03 (Fluka, Switzerland). The precipitation boundary of etidronate in the presence of Ca^2+ was determined by titration and used for choosing the solution conditions suitable for electrolytic deposition (ELD). A series of 50 mL solutions containing etidronate (15, 10, 9, 5, 4, 2.5, 1.9, 1.25, 1.22, 1.15, 1.10, and 0.625 mM) and Ca(NO3)2 of different concentrations, with Ca:etidronate molar ratio all fixed at 2:1, were prepared and titrated with NaOH solutions until the first visual sign of turbidity (end point/the precipitation boundary). The pH and NaOH volume consumption at end points were recorded and the Ca^2+ and etidronate concentrations at this point was calculated using equation (Eq. 3): [formula] where C is the titrate (etidronate or Ca^2+) concentration (mM) at the end point, C0 is the titrate concentration (mM) before titration, and VNaOH is NaOH volume (mL) consumption at the end point of titration.
After the precipitation boundary was established, etidronate 5.0 mM, Ca^2+ 10 mM, and pH 4.50 were chosen as the solution conditions for ELD. […] This volume also provided reasonable space to accommodate the experiment setup, that is, two electrodes and the fixture.

As for `CC(O)(P(=O)(O)O)P(=O)(O)O` [etidronate, 1-hydroxy-ethylidene-1,1-diphosphonate], the “Etidronate concentration at which no precipitation could be visually judged” value is given as under 1.15 mM.

For the origin of these results see US20080011613A1, “Method of electrolytically depositing a pharmaceutical coating onto a conductive osteal implant” (priority 2004, published 2008).
